Values after ≈ are worked out from the molar mass of the structure shown.
How the values were obtained:
Escherichia coli [1] = test: Antibacterial activity against Escherichia coli TEM; assay type: functional
Streptococcus pyogenes [2] = test: Antibacterial activity against Streptococcus pyogenes 308A; assay type: functional
Streptococcus pyogenes [3] = test: Antibacterial activity against Streptococcus pyogenes 77A; assay type: functional
Staphylococcus aureus [4] = test: Antibacterial activity against Staphylococcus aureus 285; assay type: functional
Staphylococcus aureus [5] = test: Antibacterial activity against Staphylococcus aureus SG511; assay type: functional
Salmonella typhimurium = test: Antibacterial activity against Salmonella Typhimurium; assay type: functional, Salmonella enterica subsp. enterica serovar Typhimurium; details: Salmonella enterica
Klebsiella aerogenes = test: Antibacterial activity against Klebsiella aerogenes 1522E; assay type: functional
Pseudomonas aeruginosa [6] = test: Antibacterial activity against Pseudomonas aeruginosa 9027; assay type: functional
Escherichia coli [7] = test: Antibacterial activity against Escherichia coli DC2; assay type: functional
Enterobacter cloacae [8] = test: Antibacterial activity against Enterobactor cloacae 1321E; assay type: functional
Salmonella paratyphi = test: Antibacterial activity against Salmonella paratyphi A; assay type: functional, Salmonella enterica subsp. enterica serovar Paratyphi A; details: Salmonella enterica
Staphylococcus aureus [9] = test: Antibacterial activity against Staphylococcus aureus 503; assay type: functional
Pasteurella multocida = test: Antibacterial activity against Pasteurella multocida; assay type: functional
[10] = system: Corynebacterium diphtheriae; test: Antibacterial activity against Corynebacterium diphtheriae; assay type: functional
Proteus vulgaris = test: Antibacterial activity against Proteus vulgaris 868; assay type: functional
Proteus mirabilis [11] = test: Antibacterial activity against Proteus mirabilis 112/3; assay type: functional
Enterobacter cloacae [12] = test: Antibacterial activity against Enterobacter cloacae 417; assay type: functional
Escherichia coli [13] = test: Antibacterial activity against Escherichia coil V6311/65; assay type: functional
Escherichia coli [14] = test: Antibacterial activity against Escherichia coli 086; assay type: functional
Streptococcus agalactiae = test: Antibacterial activity against Streptococcus agalactiae B; assay type: functional
Salmonella = test: Antibacterial activity against Salmonella orion; assay type: functional
Enterococcus durans = test: Antibacterial activity against Streptococcus durans D; assay type: functional
Pseudomonas aeruginosa [15] = test: Antibacterial activity against Pseudomonas aeruginosa 880/2; assay type: functional
Escherichia coli [16] = test: Antibacterial activity against Escherichia coli 0126; assay type: functional
Klebsiella pneumoniae = test: Antibacterial activity against Klebsiella pneumonise 477; assay type: functional
Micrococcus luteus = test: Antibacterial activity against Micrococcus luteus ATCC 9341; assay type: functional
Staphylococcus aureus [17] = test: Antibacterial activity against Staphylococcus aureus 209P; assay type: functional
Proteus mirabilis [18] = test: Antibacterial activity against Proteus mirabilis 174/3; assay type: functional
[19] = Antibacterial activity against Salmonella give; assay type: functional, Salmonella enterica subsp. enterica serovar Give; details: Salmonella enterica
Providencia rettgeri [20] = test: Antibacterial activity against Proteus rettgeri 937; assay type: functional
Serratia marcescens [21] = test: Antibacterial activity against Serratia marcescens 14273; assay type: functional
Burkholderia cepacia = test: Antibacterial activity against Pseudomonas cepacia; assay type: functional
[22] = Antibacterial activity against Salmonella oranienberg; assay type: functional, Salmonella enterica subsp. enterica serovar Oranienburg; details: Salmonella enterica
Serratia marcescens [23] = test: Antibacterial activity against Serratia marcescens 370; assay type: functional
Bacillus subtilis = test: Antibacterial activity against Bacillus subtilts ATCC 6633; assay type: functional
Staphylococcus aureus [24] = test: Antibacterial activity against Staphylococcus aureus giorgio; assay type: functional
Providencia rettgeri [25] = test: Antibacterial activity against Proteus rettgeri 936; assay type: functional
Pseudomonas aeruginosa [26] = test: Antibacterial activity against Pseudomonas aeruginosa 77/2; assay type: functional
Escherichia coli [27] = test: Antibacterial activity against Escherichia coli 0114; assay type: functional
Enterococcus faecium = test: Antibacterial activity against Streptococcus faecium 77A; assay type: functional
Trueperella pyogenes = test: Antibacterial activity against Corynebacterium pyogenes; assay type: functional
Enterobacter cloacae [28] = test: Antibacterial activity against Enterobacter cloacae; assay type: functional
Salmonella typhi = test: Antibacterial activity against Salmonella typhi; assay type: functional, Salmonella enterica subsp. enterica serovar Typhi; details: Salmonella enterica
Serratia marcescens [29] = test: Antibacterial activity against Serratia marcescens 6093; assay type: functional
Priestia megaterium = test: Antibacterial activity against Bacillus megaterium; assay type: functional
Pseudomonas aeruginosa [30] = test: Antibacterial activity against Pseudomonas aeruginosa 110/2; assay type: functional
Escherichia coli [31] = test: Antibacterial activity against Escherichia coil 1507; assay type: functional

Work on `CO/N=C(\CNS(C)(=O)=O)[C@@H]1C[C@H](SC2=C(C(=O)O)N3C(=O)[C@H]([C@@H](C)O)[C@H]3[C@H]2C)CN1` yielded an MIC (Escherichia coli [1]) of 0.195 µg/mL (≈ 0.409 µM), an MIC (Streptococcus pyogenes [2]) of 0.098 µg/mL (≈ 0.206 µM) and an MIC (Streptococcus pyogenes [3]) of 0.098 µg/mL (≈ 0.206 µM). The MIC (Staphylococcus aureus [4]) was 0.391 µg/mL (≈ 0.82 µM), the MIC (Staphylococcus aureus [5]) was 0.195 µg/mL (≈ 0.409 µM) and the MIC (Salmonella typhimurium) was 0.781 µg/mL (≈ 1.64 µM). It also gave an MIC (Klebsiella aerogenes) of 0.781 µg/mL (≈ 1.64 µM), an MIC (Pseudomonas aeruginosa [6]) of 12.5 µg/mL (≈ 26.2 µM) and an MIC (Escherichia coli [7]) of 0.195 µg/mL (≈ 0.409 µM). For the same compound, the MIC (Enterobacter cloacae [8]) was 0.391 µg/mL (≈ 0.82 µM).
`CCS(=O)(=O)NC/C(=N\OC)[C@@H]1C[C@H](SC2=C(C(=O)O)N3C(=O)[C@H]([C@@H](C)O)[C@H]3[C@H]2C)CN1` gave an MIC (Escherichia coli [1]) of 0.195 µg/mL (≈ 0.397 µM), an MIC (Streptococcus pyogenes [2]) of 0.195 µg/mL (≈ 0.397 µM) and an MIC (Streptococcus pyogenes [3]) of 0.098 µg/mL (≈ 0.2 µM). For the same compound, the MIC (Staphylococcus aureus [4]) was 0.781 µg/mL (≈ 1.59 µM), the MIC (Staphylococcus aureus [5]) was 0.195 µg/mL (≈ 0.397 µM) and the MIC (Salmonella typhimurium) was 1.56 µg/mL (≈ 3.18 µM). For the same compound, the MIC (Klebsiella aerogenes) was 0.781 µg/mL (≈ 1.59 µM), the MIC (Pseudomonas aeruginosa [6]) was 12.5 µg/mL (≈ 25.5 µM) and the MIC (Escherichia coli [7]) was 0.391 µg/mL (≈ 0.797 µM). It also gave an MIC (Enterobacter cloacae [8]) of 0.781 µg/mL (≈ 1.59 µM).
For `CC(O)[C@H]1C(=O)N2C(C(=O)O)=C(SCCNC=N)C[C@H]12` (single isomer, unassigned) [IMIPENEM ANHYDROUS], the MIC (Salmonella paratyphi) was 0.1 µg/mL (≈ 0.334 µM), the MIC (Staphylococcus aureus [9]) was less than 0.01 µg/mL and the MIC (Pasteurella multocida) was less than 0.01 µg/mL. The MIC [10] was 0.01 µg/mL (≈ 0.0334 µM), the MIC (Proteus vulgaris) was 0.1 µg/mL (≈ 0.334 µM) and the MIC (Proteus mirabilis [11]) was 0.2 µg/mL (≈ 0.668 µM). The MIC (Enterobacter cloacae [12]) was 0.1 µg/mL (≈ 0.334 µM), the MIC (Escherichia coli [13]) was 0.05 µg/mL (≈ 0.167 µM) and the MIC (Escherichia coli [14]) was 0.2 µg/mL (≈ 0.668 µM). It also gave an MIC (Streptococcus agalactiae) of 0.01 µg/mL (≈ 0.0334 µM), an MIC (Salmonella) of 0.2 µg/mL (≈ 0.668 µM) and an MIC (Enterococcus durans) of 0.1 µg/mL (≈ 0.334 µM). The MIC (Pseudomonas aeruginosa [15]) was 0.8 µg/mL (≈ 2.67 µM), the MIC (Escherichia coli [16]) was 0.1 µg/mL (≈ 0.334 µM) and the MIC (Klebsiella pneumoniae) was 0.2 µg/mL (≈ 0.668 µM). The MIC (Escherichia coli [1]) was 0.195 µg/mL (≈ 0.651 µM), the MIC (Micrococcus luteus) was 0.01 µg/mL (≈ 0.0334 µM) and the MIC (Staphylococcus aureus [17]) was 0.01 µg/mL (≈ 0.0334 µM). The MIC (Proteus mirabilis [18]) was 0.1 µg/mL (≈ 0.334 µM), the MIC [19] was 0.2 µg/mL (≈ 0.668 µM) and the MIC (Streptococcus pyogenes [2]) was less than 0.01 µg/mL. It also gave an MIC (Providencia rettgeri [20]) of 0.2 µg/mL (≈ 0.668 µM), an MIC (Streptococcus pyogenes [3]) of 0.013 µg/mL (≈ 0.0434 µM) and an MIC (Serratia marcescens [21]) of 0.8 µg/mL (≈ 2.67 µM). It also gave an MIC (Burkholderia cepacia) of 0.8 µg/mL (≈ 2.67 µM), an MIC [22] of 0.4 µg/mL (≈ 1.34 µM) and an MIC (Serratia marcescens [23]) of 0.2 µg/mL (≈ 0.668 µM). The MIC (Staphylococcus aureus [4]) was 0.013 µg/mL (≈ 0.0434 µM), the MIC (Bacillus subtilis) was 0.03 µg/mL (≈ 0.1 µM) and the MIC (Staphylococcus aureus [24]) was 0.01 µg/mL (≈ 0.0334 µM). For the same compound, the MIC (Providencia rettgeri [25]) was 0.2 µg/mL (≈ 0.668 µM), the MIC (Pseudomonas aeruginosa [26]) was 0.8 µg/mL (≈ 2.67 µM) and the MIC (Staphylococcus aureus [5]) was 0.098 µg/mL (≈ 0.327 µM). The MIC (Escherichia coli [27]) was 0.2 µg/mL (≈ 0.668 µM), the MIC (Enterococcus faecium) was less than 0.01 µg/mL and the MIC (Salmonella typhimurium) was 0.781 µg/mL (≈ 2.61 µM). It also gave an MIC (Klebsiella aerogenes) of 0.098 µg/mL (≈ 0.327 µM), an MIC (Trueperella pyogenes) of less than 0.01 µg/mL and an MIC (Enterobacter cloacae [28]) of 0.1 µg/mL (≈ 0.334 µM). The MIC (Salmonella typhi) was 0.05 µg/mL (≈ 0.167 µM), the MIC (Pseudomonas aeruginosa [6]) was 0.781 µg/mL (≈ 2.61 µM) and the MIC (Escherichia coli [7]) was 0.391 µg/mL (≈ 1.31 µM). It also gave an MIC (Serratia marcescens [29]) of 0.4 µg/mL (≈ 1.34 µM), an MIC (Priestia megaterium) of 0.03 µg/mL (≈ 0.1 µM) and an MIC (Pseudomonas aeruginosa [30]) of 0.8 µg/mL (≈ 2.67 µM). For the same compound, the MIC (Escherichia coli [31]) was 0.1 µg/mL (≈ 0.334 µM) and the MIC (Enterobacter cloacae [8]) was 0.098 µg/mL (≈ 0.327 µM).
With `CO/N=C(\CNS(=O)(=O)N(C)C)[C@@H]1C[C@H](SC2=C(C(=O)O)N3C(=O)[C@H]([C@@H](C)O)[C@H]3[C@H]2C)CN1` the MIC (Escherichia coli [1]) was 0.098 µg/mL (≈ 0.194 µM), the MIC (Streptococcus pyogenes [2]) was 0.025 µg/mL (≈ 0.0494 µM) and the MIC (Streptococcus pyogenes [3]) was 0.013 µg/mL (≈ 0.0257 µM). For the same compound, the MIC (Staphylococcus aureus [4]) was 0.195 µg/mL (≈ 0.386 µM), the MIC (Staphylococcus aureus [5]) was 0.195 µg/mL (≈ 0.386 µM) and the MIC (Salmonella typhimurium) was 0.195 µg/mL (≈ 0.386 µM). It also gave an MIC (Klebsiella aerogenes) of 0.391 µg/mL (≈ 0.773 µM), an MIC (Pseudomonas aeruginosa [6]) of 6.25 µg/mL (≈ 12.4 µM) and an MIC (Escherichia coli [7]) of 0.098 µg/mL (≈ 0.194 µM). For the same compound, the MIC (Enterobacter cloacae [8]) was 0.195 µg/mL (≈ 0.386 µM).
With `CO/N=C(\CNC(N)=O)[C@@H]1C[C@H](SC2=C(C(=O)O)N3C(=O)[C@H]([C@@H](C)O)[C@H]3[C@H]2C)CN1` the MIC (Escherichia coli [1]) was 0.049 µg/mL (≈ 0.111 µM), the MIC (Streptococcus pyogenes [2]) was less than 0.01 µg/mL and the MIC (Streptococcus pyogenes [3]) was 0.013 µg/mL (≈ 0.0294 µM). It also gave an MIC (Staphylococcus aureus [4]) of 0.195 µg/mL (≈ 0.442 µM), an MIC (Staphylococcus aureus [5]) of 0.098 µg/mL (≈ 0.222 µM) and an MIC (Salmonella typhimurium) of 0.098 µg/mL (≈ 0.222 µM). For the same compound, the MIC (Klebsiella aerogenes) was 0.195 µg/mL (≈ 0.442 µM), the MIC (Pseudomonas aeruginosa [6]) was 1.56 µg/mL (≈ 3.53 µM) and the MIC (Escherichia coli [7]) was 0.049 µg/mL (≈ 0.111 µM). It also gave an MIC (Enterobacter cloacae [8]) of 0.049 µg/mL (≈ 0.111 µM).
